Source: article PMC11011685, “4-(Azolyl)-Benzamidines as a Novel Chemotype for ASIC1a Inhibitors” (International Journal of Molecular Sciences, 2024)
Values belong to the substance of their own block, whether it stands above or below them.

What was measured:
Format in all cases: cell-based
human ASIC1a (hASIC1a) [1] = target: T1, human ASIC1a (hASIC1a) (Homo sapiens, UniProt P78348); experiment: whole-cell patch clamp, pH […] to […] evoked current, dose-response
T1 construct: gene ASIC1; native hASIC1a endogenously expressed in HEK 293 cells
T1 sequence (P78348 1-528): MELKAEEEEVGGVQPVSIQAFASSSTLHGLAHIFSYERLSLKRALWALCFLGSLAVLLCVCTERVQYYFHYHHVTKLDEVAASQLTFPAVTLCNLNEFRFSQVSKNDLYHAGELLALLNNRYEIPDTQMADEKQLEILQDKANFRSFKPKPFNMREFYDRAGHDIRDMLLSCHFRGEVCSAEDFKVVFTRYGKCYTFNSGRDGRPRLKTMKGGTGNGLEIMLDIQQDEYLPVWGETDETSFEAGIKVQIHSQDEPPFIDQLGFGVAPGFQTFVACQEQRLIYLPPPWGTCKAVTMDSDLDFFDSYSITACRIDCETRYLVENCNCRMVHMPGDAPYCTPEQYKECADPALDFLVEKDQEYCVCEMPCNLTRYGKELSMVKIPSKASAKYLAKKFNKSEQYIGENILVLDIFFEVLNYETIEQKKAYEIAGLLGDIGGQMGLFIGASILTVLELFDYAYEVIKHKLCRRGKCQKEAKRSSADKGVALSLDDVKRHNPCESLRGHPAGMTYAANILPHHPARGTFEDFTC

human ASIC1a (hASIC1a) [2] = target: T1, human ASIC1a (hASIC1a); experiment: whole-cell patch clamp, residual current I/Io at […]; conditions: 100 µM
human ASIC1a (hASIC1a) [3] = target: T1, human ASIC1a (hASIC1a); experiment: whole-cell patch clamp, residual current I/Io at […] (weak); conditions: 100 µM
human ASIC1a (hASIC1a) [4] = target: T1, human ASIC1a (hASIC1a); experiment: whole-cell patch clamp, residual current I/Io at […] (recovery […]); conditions: 100 µM

IC50 (human ASIC1a (hASIC1a) [1]): 6 ± 0.6 µM
Substance: EN300-264105

I/Io (Mean ± SD), % (human ASIC1a (hASIC1a) [2]): 37 ± 8 % I/Io at 100 µM
Substance: EN300-257412

I/Io (Mean ± SD), % (human ASIC1a (hASIC1a) [2]): 19 ± 8 % I/Io at 100 µM
Substance: EN300-262584

IC50 (human ASIC1a (hASIC1a) [1]): 25 ± 2 µM
Substance: EN300-268551

I/Io (Mean ± SD), % (human ASIC1a (hASIC1a) [3]): 65 ± 3 % I/Io at 100 µM
Substance: EN300-2324118

I/Io (Mean ± SD), % (human ASIC1a (hASIC1a) [3]): 76 ± 7 % I/Io at 100 µM
Substance: EN300-256318

I/Io (Mean ± SD), % (human ASIC1a (hASIC1a) [4]): 7 ± 2 % I/Io at 100 µM
Substance: EN300-256317

IC50 (human ASIC1a (hASIC1a) [1]): 3.5 ± 0.5 µM
Substance: EN300-257539
